Where a name gives a salt, the structure may show the parent alone.
Key:
[1] = tested on: HT29 RAMS11 overexpressing cells; test: High-throughput viability assay (resazurin), 119 FDA-approved anticancer drugs, RAMS11 overexpressing cells (Clone1, Clone2); conditions: for Viability Fold Change: 72 h, vs empty vector control; for increase in drug resistance in HT29 RAMS11 overexpressing cells: topoisomerase inhibitors, vs empty vector cells; for increase in cellular viability compared with empty vector control cell line: HT29 RAMS11 overexpressing vs empty vector cells, treated 72 h
[2] = tested on: LoVo RAMS11 CRISPR KO cells; test: Individual drug IC50 / cell viability assays in RAMS11 CRISPR KO cells; assay type: cell-based; conditions: for increase in drug sensitivity: LoVo RAMS11 CRISPR KO vs wild-type treated cells, 0.5 μM doxorubicin or 0.7 μM epirubicin
Method: The NIH approved oncology library of 119 drugs (AOD6 plate 4825-1 and AOD6 plate 4826) was received from the NIH National Cancer Institute DTP Developmental Therapeutics Program. Drugs were diluted in DMSO to 1 mM and the well assignments were rearranged so drugs were confined to the inner 60 wells of 96-well plates. HT29 RAMS11 overexpressing Clone1 and Clone2 cell lines were seeded at 5000 cells per well in a 96-well plate. The next day serial diluted drug was added to pre-seeded plates in media containing 1% DMSO vehicle, using a Robbins Hydra 96 micro dispenser. Two 96-well plates of cells were used as vehicle controls. The plates were incubated for 3 days. Percent viability was scored by incubating cells for 3 h with resazurin sodium (0.023 mg/mL, Sigma R7017). The reaction was stopped by the addition of SDS (1% final concentration). Fluorescence Ex/Em 540/590 was read in a Biotek Synergy H1 plate reader (Winooski, VT). The fluorescence values for the vehicle plates were averaged and percent viability was determined by the formula: Percent viability=[…]/(average vehicle−average resazurin in media blank)×100. We removed drugs that were undetectable, or out of range, by resazurin assay, leaving 118 drugs to assess in the study (TABLE 3). Values with more than a 1.5-fold change in both RAMS11 Clone1 and Clone2 overexpressing cell lines were used to determine significance. Individual drug IC50 assays were done in a similar manner as described above with CRISPR KO cells. Assays were repeated more than three times.

[3] = tested on: SW620 cells with silenced RAMS11; test: Drug IC50 / cell viability assays in cells with transient silencing of RAMS11
[4] = OE1 (RAMS11 overexpression clone 1), 0.1 uM drug
[5] = OE1 (RAMS11 overexpression clone 1), 1 uM drug
[6] = OE1 (RAMS11 overexpression clone 1), 10 uM drug
[7] = OE2 (RAMS11 overexpression clone 2), 0.1 uM drug
[8] = OE2 (RAMS11 overexpression clone 2), 1 uM drug
[9] = OE2 (RAMS11 overexpression clone 2), 10 uM drug

Molecule | Viability Fold Change [1, 4] | Viability Fold Change [1, 5] | Viability Fold Change [1, 6] | Viability Fold Change [1, 7] | Viability Fold Change [1, 8] | Viability Fold Change [1, 9] | increase in drug resistance in HT29 RAMS11 overexpressing cells [1] | increase in drug sensitivity [2] [fold] | increase in cellular viability compared with empty vector control cell line [1] | effect of cell viability ([1]; HT29 RAMS11 overexpressing cells) | effect of cell viability ([2]; LoVo RAMS11 CRISPR KO cells) | increase in drug sensitivity ([3]; SW620, RAMS11 siRNA1 relative to scrambled control) [fold] | increase in drug sensitivity ([3]; SW620, RAMS11 siRNA2 relative to scrambled control) [fold]
CCCCC(=O)OCC(=O)[C@]1(O)Cc2c(O)c3c(c(O)c2[C@@H](O[C@H]2C[C@H](NC(=O)C(F)(F)F)[C@H](O)[C@H](C)O2)C1)C(=O)c1c(OC)cccc1C3=O [Valrubicin] | 0.9645 | 1.163 | 1.863 | 0.9166 | 1.213 | 1.792 | – | – | – | – | – | – | –
COc1cc2c(Nc3ccc(Br)cc3F)ncnc2cc1OCC1CCN(C)CC1 [Vandetanib] | 0.9025 | 0.8127 | 1.181 | 0.971 | 0.9162 | 1.142 | – | – | – | – | – | – | –
CCCS(=O)(=O)Nc1ccc(F)c(C(=O)c2c[nH]c3ncc(-c4ccc(Cl)cc4)cc23)c1F [Vemurafenib] | 0.6921 | 0.4381 | 0.569 | 0.762 | 0.5468 | 0.6144 | – | – | – | – | – | – | –
CC[C@]1(O)C[C@@H]2CN(CCc3c([nH]c4ccccc34)[C@@](C(=O)OC)(c3cc4c(cc3OC)N(C)[C@H]3[C@@](O)(C(=O)OC)[C@H](OC(C)=O)[C@]5(CC)C=CCN6CC[C@]43[C@@H]65)C2)C1 [Vinblastine sulfate] | 3.198 | 3.402 | 3.682 | 2.825 | 3.412 | 3.815 | – | – | – | – | – | – | –
CCC1=C[C@@H]2CN(C1)Cc1c([nH]c3ccccc13)[C@@](C(=O)OC)(c1cc3c(cc1OC)N(C)[C@H]1[C@@](O)(C(=O)OC)[C@H](OC(C)=O)[C@]4(CC)C=CCN5CC[C@]31[C@@H]54)C2 [Vinorelbine tartrate] | 0.9568 | 1.194 | 2.913 | 0.9481 | 1.067 | 2.913 | – | – | – | – | – | – | –
CS(=O)(=O)c1ccc(C(=O)Nc2ccc(Cl)c(-c3ccccn3)c2)c(Cl)c1 [Vismodegib] | 0.8416 | 0.9134 | 0.9421 | 0.9752 | 0.846 | 0.8976 | – | – | – | – | – | – | –
O=C(CCCCCCC(=O)Nc1ccccc1)NO [Vorinostat] | 1.123 | 0.8948 | 1.604 | 1.068 | 1.159 | 1.356 | – | – | – | – | – | – | –
O=P(O)(O)C(O)(Cn1ccnc1)P(=O)(O)O [Zoledronic acid] | 0.9494 | 0.9911 | 1.01 | 0.9595 | 1.055 | 1.082 | – | – | – | – | – | – | –
COc1cccc2c1C(=O)c1c(O)c3c(c(O)c1C2=O)C[C@@](O)(C(C)=O)C[C@@H]3O[C@H]1C[C@H](N)[C@H](O)[C@H](C)O1 [daunorubicin HCl, reference compound] | 1.103 | 2.258 | 3.761 | 1.084 | 2.098 | 3.726 | at least a two-fold increase in drug resistance | – | – | – | – | – | –
COc1cccc2c1C(=O)c1c(O)c3c(c(O)c1C2=O)C[C@@](O)(C(=O)CO)C[C@@H]3O[C@H]1C[C@H](N)[C@H](O)[C@H](C)O1 [doxorubicin HCl, reference compound] | 1.113 | 1.973 | 2.438 | 1.165 | 1.939 | 2.403 | at least a two-fold increase in drug resistance | 1.5 | – | – | – | – | –
COc1cccc2c1C(=O)c1c(O)c3c(c(O)c1C2=O)C[C@@](O)(C(=O)CO)C[C@@H]3O[C@H]1C[C@H](N)[C@@H](O)[C@H](C)O1 [epirubicin HCl, reference compound] | – | – | – | – | – | – | at least a two-fold increase in drug resistance | 1.5 | – | – | – | – | –
O=c1[nH]c(=O)n([C@H]2C[C@H](O)[C@@H](CO)O2)cc1F [floxuridine, reference compound] | 1.541 | 2.291 | 2.964 | 1.569 | 2.375 | 3.091 | – | – | greatest resistance | – | – | – | –
Nc1ccn([C@@H]2O[C@H](CO)[C@@H](O)C2(F)F)c(=O)n1 [gemcitabine, reference compound] | – | 3.429 | 2.39 | 1.507 | 3.028 | 2.499 | – | – | greatest resistance | – | – | – | –
CC(=O)[C@]1(O)Cc2c(O)c3c(c(O)c2[C@@H](O[C@H]2C[C@H](N)[C@H](O)[C@H](C)O2)C1)C(=O)c1ccccc1C3=O [idarubicin HCl, reference compound] | – | – | – | – | – | – | at least a two-fold increase in drug resistance | – | – | – | – | – | –
CCc1c2c(nc3ccc(OC(=O)N4CCC(N5CCCCC5)CC4)cc13)-c1cc3c(c(=O)n1C2)COC(=O)[C@]3(O)CC [irinotecan] | – | – | – | – | – | – | – | – | – | did not see a significant effect | did not see a significant effect | > 3.17 | > 11.8
CC[C@@]1(O)C(=O)OCc2c1cc1n(c2=O)Cc2cc3c(CN(C)C)c(O)ccc3nc2-1 [topotecan hydrochloride, reference compound] | – | – | – | – | – | – | at least a two-fold increase in drug resistance | – | – | – | – | – | –
Arsenic trioxide | 0.9683 | 0.9697 | 0.8821 | 1.015 | – | 1.115 | – | – | – | – | – | – | –
Bleomycin | 0.921 | 1.039 | 1.025 | 0.96 | – | – | – | – | – | – | – | – | –
Dabrafenib mesylate | 0.7923 | 0.8383 | 0.912 | 0.7733 | 0.8008 | 0.913 | – | – | – | – | – | – | –

Source: US12024707B2, “Methods and compositions for modulating lncRNAs and methods of treatment based on lncRNA expression” (Washington University, priority 2020, dated 2024)
